Test results from the supplement of paper PMC10307832.

Columns and labels:
Experiment in all cases: relative viability (nuclei count vs DMSO), 5 days (fraction); higher = more cells survive
VE-821 + Palbociclib = compound: CS(=O)(=O)c1ccc(-c2cnc(N)c(C(=O)Nc3ccccc3)n2)cc1 [VE-821] + CC(=O)c1c(C)c2cnc(Nc3ccc(N4CCNCC4)cn3)nc2n(C2CCCC2)c1=O [Palbociclib] (partner 0.5 µM)
Method in brief: (§1)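 After 5 days of treatment, lung cancer cells in 1536-well plates were fixed and stained in a single step (final 0.05% Triton X-100, 1% formaldehyde, 1 ug/ml Hoechst) and their nuclei counted on 4× images. Treatment had been applied by pin tool the day after seeding as one drug alone or as a fixed anchor-drug dose with five library-drug doses (not always all listed) in √10 steps. Relative viability is the nuclei count of treated wells divided by that of vehicle wells, and values are medians of duplicate plates.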

Vismodegib + Tozasertib = compound: CS(=O)(=O)c1ccc(C(=O)Nc2ccc(Cl)c(-c3ccccn3)c2)c(Cl)c1 [Vismodegib] + Cc1cc(Nc2cc(N3CCN(C)CC3)nc(Sc3ccc(NC(=O)C4CC4)cc3)n2)n[nH]1 [Tozasertib] (partner 0.1 µM)
Method in brief: as §1

Ruxolitinib + Navitoclax = compound: N#CC[C@H](C1CCCC1)n1cc(-c2ncnc3[nH]ccc23)cn1 [Ruxolitinib] + CC1(C)CCC(c2ccc(Cl)cc2)=C(CN2CCN(c3ccc(C(=O)NS(=O)(=O)c4ccc(N[C@H](CCN5CCOCC5)CSc5ccccc5)c(S(=O)(=O)C(F)(F)F)c4)cc3)CC2)C1 [Navitoclax] (partner 0.5 µM)
Method in brief: as §1

Ruxolitinib + AZD7762 = compound: N#CC[C@H](C1CCCC1)n1cc(-c2ncnc3[nH]ccc23)cn1 [Ruxolitinib] + NC(=O)Nc1cc(-c2cccc(F)c2)sc1C(=O)N[C@H]1CCCNC1 [AZD7762] (partner 0.2 µM)
Method in brief: as §1

Cell Line | relative viability (VE-821 + Palbociclib; first compound 0.08 µM) | relative viability (VE-821 + Palbociclib; first compound 0.253 µM) | relative viability (VE-821 + Palbociclib; first compound 0.8 µM) | relative viability (VE-821 + Palbociclib; first compound 2.53 µM) | relative viability (VE-821 + Palbociclib; first compound 8 µM) | relative viability (Vismodegib + Tozasertib; first compound 0.08 µM) | relative viability (Vismodegib + Tozasertib; first compound 0.253 µM) | relative viability (Vismodegib + Tozasertib; first compound 0.8 µM) | relative viability (Vismodegib + Tozasertib; first compound 2.53 µM) | relative viability (Vismodegib + Tozasertib; first compound 8 µM) | relative viability (Ruxolitinib + Navitoclax; first compound 0.08 µM) | relative viability (Ruxolitinib + Navitoclax; first compound 0.253 µM) | relative viability (Ruxolitinib + Navitoclax; first compound 0.8 µM) | relative viability (Ruxolitinib + Navitoclax; first compound 2.53 µM) | relative viability (Ruxolitinib + Navitoclax; first compound 8 µM) | relative viability (Ruxolitinib + AZD7762; first compound 0.08 µM) | relative viability (Ruxolitinib + AZD7762; first compound 0.253 µM) | relative viability (Ruxolitinib + AZD7762; first compound 0.8 µM) | relative viability (Ruxolitinib + AZD7762; first compound 2.53 µM) | relative viability (Ruxolitinib + AZD7762; first compound 8 µM)
HOP-62 | 0.508 | 0.459 | 0.471 | 0.463 | 0.461 | 0.307 | 0.327 | 0.345 | 0.343 | 0.332 | 1.02 | 1.17 | 1.11 | 1 | 1.11 | 0.437 | 0.796 | 0.564 | 0.627 | 0.704
LC-2-ad | 0.557 | 0.473 | 0.559 | 0.504 | 0.514 | 0.504 | 0.545 | 0.427 | 0.434 | 0.462 | 0.376 | 0.435 | 0.444 | 0.257 | 0.243 | 0.875 | 0.865 | 0.821 | 0.792 | 0.693
LCLC-97TM1 | 0.257 | 0.238 | 0.25 | 0.267 | 0.255 | 0.22 | 0.284 | 0.218 | 0.239 | 0.273 | 0.459 | 0.384 | 0.537 | 0.492 | 0.354 | 0.401 | 0.267 | 0.317 | 0.287 | 0.53
LK-2 | 0.762 | 0.737 | 0.781 | 0.563 | 0.639 | 0.194 | 0.167 | 0.167 | 0.17 | 0.165 |  | 0.719 | 1.11 | 0.9 | 0.708 | 0.4 | 0.489 | 0.815 | 0.481 | 0.648
LOU-NH91 | 0.543 | 0.512 | 0.545 | 0.548 | 0.565 | 0.622 | 0.688 | 0.644 | 0.656 | 0.675 | 0.487 | 0.688 | 0.909 | 0.585 | 0.688 | 0.757 | 0.664 | 0.797 | 0.74 | 0.73
LU99A | 0.426 | 0.456 | 0.434 | 0.408 | 0.267 | 0.301 | 0.248 | 0.239 | 0.268 | 0.269 | 0.986 | 0.737 | 0.803 | 0.751 | 0.666 | 0.336 | 0.402 | 0.394 | 0.406 | 0.477
LXF-289 | 0.583 | 0.606 | 0.716 | 0.677 | 0.712 | 0.22 | 0.185 | 0.2 | 0.224 | 0.213 | 0.914 | 0.956 | 0.891 | 0.92 | 0.778 | 1.06 | 1.15 | 1.11 | 1.04 | 1
NCI-H23 | 0.562 | 0.49 | 0.466 | 0.352 | 0.274 | 0.362 | 0.425 | 0.386 | 0.297 | 0.301 | 0.716 | 1.12 | 0.978 | 0.801 | 0.929 | 0.456 | 0.303 | 0.279 | 0.206 | 0.277
NCI-H322M | 0.446 | 0.462 | 0.463 | 0.483 | 0.443 | 0.483 | 0.485 | 0.503 | 0.473 | 0.443 | 1.36 | 1.26 | 1.27 | 1.53 | 1.44 | 0.524 | 0.508 | 0.517 | 0.685 | 0.776
NCI-H441 | 0.251 | 0.167 | 0.253 | 0.246 | 0.228 | 0.576 | 0.63 | 0.567 | 0.524 | 0.584 | 0.817 | 0.501 | 0.659 | 0.45 | 0.623 | 1.29 | 1.09 | 1.22 | 1.16 | 1.05
NCI-H460 | 0.203 | 0.166 | 0.159 | 0.0414 | 0.0344 | 0.55 | 0.447 | 0.377 | 0.367 | 0.298 | 1.17 | 1.34 | 1.34 | 1.13 | 0.656 |  | 0.626 | 0.696 | 0.656 | 0.676
NCI-H647 | 0.385 | 0.297 | 0.349 | 0.371 | 0.15 | 0.253 | 0.205 | 0.265 | 0.188 | 0.227 |  | 0.995 | 1.27 | 0.855 | 0.989 | 0.398 | 0.499 | 0.421 | 0.439 | 0.366
NCI-H727 | 0.737 | 0.726 | 0.618 | 0.638 | 0.659 | 0.785 | 0.619 | 0.644 | 0.53 | 0.62 | 0.472 | 0.426 | 0.627 | 0.595 | 0.366 | 0.701 | 0.461 | 0.587 | 0.8 | 0.979
NCI-H838 | 0.222 | 0.186 | 0.218 | 0.266 | 0.191 | 0.263 | 0.276 | 0.263 | 0.283 | 0.29 | 1.08 | 1.06 | 1.04 | 0.641 | 0.406 | 0.925 | 0.874 | 0.87 | 0.776 | 0.721
NCI-H1355 | 0.455 | 0.349 | 0.287 | 0.366 | 0.361 | 0.568 | 0.557 | 0.613 | 0.577 | 0.548 | 0.924 | 0.925 | 0.992 | 0.807 | 0.701 | 0.729 | 0.735 | 0.878 | 0.604 | 0.668
NCI-H1395 | 0.725 | 0.658 | 0.549 | 0.586 | 0.516 | 0.823 | 0.771 | 0.71 | 0.667 | 0.81 |  | 0.993 | 1.17 | 1.13 | 0.944 | 0.422 | 0.385 | 0.424 | 0.356 | 0.407
NCI-H1437 | 0.305 | 0.262 | 0.36 | 0.335 | 0.284 | 0.395 | 0.398 | 0.396 | 0.38 | 0.392 | 1.12 | 1.14 | 1.14 | 1.05 | 0.884 | 1.18 | 1.11 | 1.19 | 1.04 | 0.925
NCI-H1651 | 0.523 | 0.547 | 0.502 | 0.565 | 0.519 | 0.617 | 0.704 | 0.643 | 0.604 | 0.704 | 0.978 | 1.08 | 1.11 | 1.36 | 0.996 | 0.512 | 0.449 | 0.533 | 0.545 | 0.689
NCI-H1666 | 0.635 | 0.685 | 0.644 | 0.713 | 0.621 | 0.564 | 0.684 | 0.591 | 0.585 | 0.7 | 0.876 | 1.01 | 1.1 | 0.759 | 1.07 | 0.869 | 0.868 | 0.921 | 0.841 | 0.974
NCI-H1734 | 0.462 | 0.363 | 0.325 | 0.337 | 0.532 | 0.249 | 0.281 | 0.267 | 0.263 | 0.263 | 0.749 | 0.698 | 0.899 | 0.724 | 0.785 | 0.638 | 0.629 | 0.662 | 0.54 | 0.602
NCI-H1755 | 0.429 | 0.437 | 0.423 | 0.363 | 0.424 | 0.568 | 0.575 | 0.534 | 0.556 | 0.524 | 0.919 | 0.925 | 1 | 0.844 | 0.732 | 0.497 | 0.465 | 0.573 | 0.471 | 0.343
NCI-H1793 | 0.361 | 0.32 |  | 0.447 | 0.333 |  | 0.336 | 0.393 | 0.269 | 0.279 | 0.494 | 0.374 | 0.486 | 0.621 | 0.266 | 0.759 | 0.502 | 0.595 | 0.437 | 0.391
NCI-H1915 | 0.558 | 0.532 | 0.54 | 0.547 | 0.452 | 0.431 | 0.386 | 0.466 | 0.413 | 0.414 | 0.79 | 0.838 | 0.791 | 0.731 | 0.691 | 0.687 | 0.681 | 0.753 | 0.572 | 0.593
NCI-H1944 | 0.408 | 0.325 | 0.256 | 0.354 | 0.236 | 0.261 | 0.285 | 0.26 | 0.269 | 0.232 | 0.998 | 0.959 | 1.03 | 0.887 | 0.955 | 0.576 | 0.612 | 0.642 | 0.469 | 0.68
NCI-H1975 | 0.601 | 0.473 | 0.349 | 0.607 | 0.415 | 0.892 | 0.744 | 0.733 | 0.643 | 0.261 | 1.13 | 1.04 | 1.15 | 0.698 | 0.591 | 0.669 | 0.643 | 0.675 | 0.67 | 0.501
NCI-H1993 | 0.673 | 0.619 | 0.561 | 0.635 | 0.537 | 0.529 | 0.548 | 0.584 | 0.632 | 0.593 | 0.858 | 0.869 | 0.998 | 1.02 | 0.932 | 0.828 | 0.646 | 1.05 | 0.794 | 0.985
NCI-H2085 | 0.481 | 0.489 | 0.493 |  | 0.552 | 0.835 | 0.849 | 0.85 | 0.698 | 0.621 | 1.12 | 1.07 | 1.2 | 1.11 | 0.999 | 1.08 | 1.1 | 1.01 | 0.921 | 0.984
